Consider two molecules from article PMC4076210, “Discovery of Novel AKT Inhibitors with Enhanced Anti-Tumor Effects in Combination with the MEK Inhibitor” (PLoS ONE, 2014).

Usually inhibition stands for the drop in the measured response relative to a control, in per cent. The % Inhibition is the share of the control response that was lost under treatment. A higher % Inhibition goes with a strong effect. For orientation: IC50 means the concentration needed to halve the response being measured.

Where two headings read alike, the source gives them in different places.

The target in one assay is T1, MAPKAP-K3(h) (Homo sapiens, UniProt Q16644).
T1 construct: purchased Millipore KinaseProfiler
The assay is described as follows: Kinase panel. The assay is classed as biochemical.

For a further assay, the target named is T2, SRPK2(h) (Homo sapiens, UniProt P78362).
T2 construct: purchased Millipore KinaseProfiler
The assay is described as follows: Kinase panel. The assay is classed as biochemical.

Another assay has as its target T3, Lyn(h) (Homo sapiens, UniProt P07948).
T3 construct: purchased Millipore KinaseProfiler
The assay is described as follows: Kinase panel. The class given is biochemical.

The target of a further assay is T4, DRAK1(h) (Homo sapiens, UniProt Q9UEE5).
T4 construct: purchased Millipore KinaseProfiler
T4 sequence (Q9UEE5 1-414): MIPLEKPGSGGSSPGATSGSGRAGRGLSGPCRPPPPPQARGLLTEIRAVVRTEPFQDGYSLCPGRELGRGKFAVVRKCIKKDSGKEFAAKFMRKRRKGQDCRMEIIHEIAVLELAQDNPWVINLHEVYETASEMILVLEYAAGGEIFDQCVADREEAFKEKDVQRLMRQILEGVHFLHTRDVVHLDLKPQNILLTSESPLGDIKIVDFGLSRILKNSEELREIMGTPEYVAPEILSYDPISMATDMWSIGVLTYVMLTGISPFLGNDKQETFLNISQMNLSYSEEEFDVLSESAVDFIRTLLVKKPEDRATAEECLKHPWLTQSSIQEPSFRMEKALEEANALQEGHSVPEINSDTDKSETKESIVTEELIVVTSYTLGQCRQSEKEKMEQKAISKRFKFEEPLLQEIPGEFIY
Kind of assay: Kinase panel. The assay is classed as biochemical.

The target of another assay is T5, FGFR2(h) (Homo sapiens, UniProt P21802).
T5 construct: purchased Millipore KinaseProfiler
Kind of assay: Kinase panel. The assay is classed as biochemical.

For the next assay, the target named is T6, PKG1β(h) (Homo sapiens, UniProt Q13976).
T6 construct: purchased Millipore KinaseProfiler
T6 sequence (Q13976 1-686 isoform Q13976-2): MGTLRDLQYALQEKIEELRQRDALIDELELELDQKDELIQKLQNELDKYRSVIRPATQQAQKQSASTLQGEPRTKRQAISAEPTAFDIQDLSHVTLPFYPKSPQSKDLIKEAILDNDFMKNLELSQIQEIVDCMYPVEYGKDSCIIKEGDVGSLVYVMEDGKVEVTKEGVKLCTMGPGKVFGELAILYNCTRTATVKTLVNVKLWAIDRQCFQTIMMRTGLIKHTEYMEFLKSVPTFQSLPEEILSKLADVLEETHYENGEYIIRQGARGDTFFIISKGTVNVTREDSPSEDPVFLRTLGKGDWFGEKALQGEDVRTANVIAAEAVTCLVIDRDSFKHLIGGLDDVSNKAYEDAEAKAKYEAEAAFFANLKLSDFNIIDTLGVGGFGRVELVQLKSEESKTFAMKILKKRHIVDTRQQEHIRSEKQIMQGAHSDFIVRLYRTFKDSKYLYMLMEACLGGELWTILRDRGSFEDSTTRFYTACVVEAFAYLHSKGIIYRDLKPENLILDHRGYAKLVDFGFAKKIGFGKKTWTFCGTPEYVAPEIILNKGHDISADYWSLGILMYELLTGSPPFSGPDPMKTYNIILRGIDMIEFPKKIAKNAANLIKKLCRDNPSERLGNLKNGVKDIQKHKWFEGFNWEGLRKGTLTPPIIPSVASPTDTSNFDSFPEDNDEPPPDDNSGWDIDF
The assay is described as follows: Kinase panel. The class given is biochemical.

A further assay addresses T7, MKK4(m) (Mus musculus, UniProt P47809).
T7 construct: purchased Millipore KinaseProfiler
T7 sequence (P47809 2-397 limits assumed): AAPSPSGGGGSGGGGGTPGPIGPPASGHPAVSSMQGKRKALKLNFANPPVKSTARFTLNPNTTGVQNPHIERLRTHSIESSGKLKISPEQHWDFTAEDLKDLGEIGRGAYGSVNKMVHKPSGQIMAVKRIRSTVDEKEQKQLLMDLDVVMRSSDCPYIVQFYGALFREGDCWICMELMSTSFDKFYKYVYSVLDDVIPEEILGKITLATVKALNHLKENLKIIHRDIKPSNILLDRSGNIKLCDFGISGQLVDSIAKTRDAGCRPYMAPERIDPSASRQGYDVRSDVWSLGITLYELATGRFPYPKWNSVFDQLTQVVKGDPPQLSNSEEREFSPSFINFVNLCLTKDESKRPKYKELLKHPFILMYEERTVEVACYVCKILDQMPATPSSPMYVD
Kind of assay: Kinase panel. The assay is classed as biochemical.

Another assay deals with T8, BRK(h) (Homo sapiens, UniProt Q13882).
T8 construct: purchased Millipore KinaseProfiler
The assay is described as follows: Kinase panel. The class given is biochemical.

A further assay has as its system AMPK(r). The assay is described as follows: Kinase panel. The class given is biochemical, rat.
Another assay deals with PKCε (Homo sapiens, UniProt Q02156). The assay is described as follows: Kinase IC50 assay. The assay is classed as biochemical.
In a further assay the target is T9, MAPK1(h) (Homo sapiens, UniProt P27361).
T9 construct: purchased Millipore KinaseProfiler
The assay is described as follows: Kinase panel. The assay is classed as biochemical.

Another assay addresses T10, NEK2(h) (Homo sapiens, UniProt P51955).
T10 construct: purchased Millipore KinaseProfiler
T10 sequence (P51955 1-445): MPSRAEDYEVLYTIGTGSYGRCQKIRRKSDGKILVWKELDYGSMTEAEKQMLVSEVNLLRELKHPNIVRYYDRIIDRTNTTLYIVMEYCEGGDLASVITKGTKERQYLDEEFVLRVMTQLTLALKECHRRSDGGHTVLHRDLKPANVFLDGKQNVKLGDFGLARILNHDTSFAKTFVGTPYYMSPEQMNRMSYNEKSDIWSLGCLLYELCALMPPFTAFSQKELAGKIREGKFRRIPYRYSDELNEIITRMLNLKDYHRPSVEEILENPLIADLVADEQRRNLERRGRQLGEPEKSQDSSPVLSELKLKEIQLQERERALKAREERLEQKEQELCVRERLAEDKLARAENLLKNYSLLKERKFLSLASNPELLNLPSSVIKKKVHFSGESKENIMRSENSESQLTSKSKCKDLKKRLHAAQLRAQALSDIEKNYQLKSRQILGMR
The assay is described as follows: Kinase panel. The class given is biochemical.

T5 sequence (P21802 22-821): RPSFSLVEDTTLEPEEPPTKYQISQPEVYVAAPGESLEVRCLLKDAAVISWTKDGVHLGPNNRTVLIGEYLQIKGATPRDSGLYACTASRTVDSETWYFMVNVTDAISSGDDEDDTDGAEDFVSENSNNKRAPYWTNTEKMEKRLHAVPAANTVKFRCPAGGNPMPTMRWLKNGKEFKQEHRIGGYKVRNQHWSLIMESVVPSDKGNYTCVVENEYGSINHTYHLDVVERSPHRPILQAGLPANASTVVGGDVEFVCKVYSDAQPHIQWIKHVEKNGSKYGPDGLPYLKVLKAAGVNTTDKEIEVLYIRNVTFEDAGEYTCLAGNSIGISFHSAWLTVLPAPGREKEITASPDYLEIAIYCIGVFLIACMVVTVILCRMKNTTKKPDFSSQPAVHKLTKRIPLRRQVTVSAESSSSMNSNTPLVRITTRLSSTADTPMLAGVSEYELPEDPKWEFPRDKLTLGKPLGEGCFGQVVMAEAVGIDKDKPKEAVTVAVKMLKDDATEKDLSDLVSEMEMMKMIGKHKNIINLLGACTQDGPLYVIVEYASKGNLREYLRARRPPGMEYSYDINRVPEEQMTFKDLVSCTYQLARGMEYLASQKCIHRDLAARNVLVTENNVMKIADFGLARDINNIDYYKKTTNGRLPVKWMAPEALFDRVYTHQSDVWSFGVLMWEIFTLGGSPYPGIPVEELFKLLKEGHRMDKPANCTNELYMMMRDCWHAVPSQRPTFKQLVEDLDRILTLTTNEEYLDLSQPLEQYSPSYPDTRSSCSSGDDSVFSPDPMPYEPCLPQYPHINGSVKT
T1 sequence (Q16644 whole entry): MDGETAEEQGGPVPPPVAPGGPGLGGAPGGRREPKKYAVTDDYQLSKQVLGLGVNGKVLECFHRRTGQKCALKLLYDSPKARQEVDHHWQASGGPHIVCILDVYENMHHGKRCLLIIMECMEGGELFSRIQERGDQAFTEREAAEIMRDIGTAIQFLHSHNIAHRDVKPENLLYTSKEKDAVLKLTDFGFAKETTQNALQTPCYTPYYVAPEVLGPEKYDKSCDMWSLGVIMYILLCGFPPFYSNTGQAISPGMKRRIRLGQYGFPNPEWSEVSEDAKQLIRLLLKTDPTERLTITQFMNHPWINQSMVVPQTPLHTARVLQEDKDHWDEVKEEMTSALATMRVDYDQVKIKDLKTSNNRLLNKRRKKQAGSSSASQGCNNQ
T9 sequence (P27361 whole entry): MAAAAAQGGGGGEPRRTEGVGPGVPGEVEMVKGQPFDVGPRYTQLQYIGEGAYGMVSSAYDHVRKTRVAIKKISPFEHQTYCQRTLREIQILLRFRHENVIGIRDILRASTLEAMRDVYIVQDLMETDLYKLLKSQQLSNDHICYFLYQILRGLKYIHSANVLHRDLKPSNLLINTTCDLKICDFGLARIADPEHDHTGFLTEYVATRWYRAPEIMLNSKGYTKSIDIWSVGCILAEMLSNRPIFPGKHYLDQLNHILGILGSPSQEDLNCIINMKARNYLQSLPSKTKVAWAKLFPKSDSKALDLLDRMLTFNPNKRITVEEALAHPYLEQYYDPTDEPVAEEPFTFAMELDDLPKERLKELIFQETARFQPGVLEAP
T2 sequence (P78362 whole entry): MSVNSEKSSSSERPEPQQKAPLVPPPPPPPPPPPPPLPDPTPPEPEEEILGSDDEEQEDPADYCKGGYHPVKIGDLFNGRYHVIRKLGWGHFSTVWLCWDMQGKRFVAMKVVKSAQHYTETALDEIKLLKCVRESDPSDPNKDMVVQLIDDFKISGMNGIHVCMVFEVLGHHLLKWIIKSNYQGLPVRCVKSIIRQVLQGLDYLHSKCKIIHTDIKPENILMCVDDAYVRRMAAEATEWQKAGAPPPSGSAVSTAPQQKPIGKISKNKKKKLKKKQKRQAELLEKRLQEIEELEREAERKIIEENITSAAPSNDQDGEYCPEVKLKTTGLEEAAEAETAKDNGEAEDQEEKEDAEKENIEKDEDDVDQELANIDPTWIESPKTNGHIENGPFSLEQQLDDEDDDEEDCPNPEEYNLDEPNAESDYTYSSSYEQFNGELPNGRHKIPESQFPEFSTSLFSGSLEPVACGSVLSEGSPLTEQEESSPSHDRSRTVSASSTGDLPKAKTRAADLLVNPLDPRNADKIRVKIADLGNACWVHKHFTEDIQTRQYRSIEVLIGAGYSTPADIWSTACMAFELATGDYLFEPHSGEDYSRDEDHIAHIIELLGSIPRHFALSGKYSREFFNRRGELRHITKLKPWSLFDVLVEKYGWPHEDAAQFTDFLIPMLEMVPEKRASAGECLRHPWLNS
T8 sequence (Q13882 whole entry): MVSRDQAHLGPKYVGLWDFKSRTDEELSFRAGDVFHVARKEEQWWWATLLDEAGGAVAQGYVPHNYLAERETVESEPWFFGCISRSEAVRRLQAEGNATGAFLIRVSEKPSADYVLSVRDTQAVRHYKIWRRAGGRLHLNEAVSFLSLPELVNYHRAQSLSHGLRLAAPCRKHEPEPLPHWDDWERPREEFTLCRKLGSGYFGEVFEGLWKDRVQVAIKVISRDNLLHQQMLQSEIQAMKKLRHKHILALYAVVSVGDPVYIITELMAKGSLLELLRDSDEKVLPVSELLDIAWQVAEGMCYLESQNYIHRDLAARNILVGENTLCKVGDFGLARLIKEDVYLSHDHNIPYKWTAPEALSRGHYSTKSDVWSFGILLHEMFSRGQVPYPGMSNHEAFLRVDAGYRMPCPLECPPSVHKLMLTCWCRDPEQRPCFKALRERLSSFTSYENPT
T3 sequence (P07948 whole entry): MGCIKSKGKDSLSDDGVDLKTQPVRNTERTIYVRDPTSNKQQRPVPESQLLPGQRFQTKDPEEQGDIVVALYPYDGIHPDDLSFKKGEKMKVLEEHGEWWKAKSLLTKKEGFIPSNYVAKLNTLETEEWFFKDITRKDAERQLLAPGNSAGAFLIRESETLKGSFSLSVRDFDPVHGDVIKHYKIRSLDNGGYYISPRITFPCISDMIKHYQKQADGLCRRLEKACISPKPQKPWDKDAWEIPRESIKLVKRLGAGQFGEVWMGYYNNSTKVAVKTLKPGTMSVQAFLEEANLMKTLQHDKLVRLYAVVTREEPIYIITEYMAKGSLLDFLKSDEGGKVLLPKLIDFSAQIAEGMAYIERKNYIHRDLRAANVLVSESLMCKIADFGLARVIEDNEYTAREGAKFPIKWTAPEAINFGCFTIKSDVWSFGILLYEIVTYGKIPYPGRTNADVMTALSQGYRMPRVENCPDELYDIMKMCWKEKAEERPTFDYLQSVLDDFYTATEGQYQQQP
PKCε, sequence (Q02156 whole entry): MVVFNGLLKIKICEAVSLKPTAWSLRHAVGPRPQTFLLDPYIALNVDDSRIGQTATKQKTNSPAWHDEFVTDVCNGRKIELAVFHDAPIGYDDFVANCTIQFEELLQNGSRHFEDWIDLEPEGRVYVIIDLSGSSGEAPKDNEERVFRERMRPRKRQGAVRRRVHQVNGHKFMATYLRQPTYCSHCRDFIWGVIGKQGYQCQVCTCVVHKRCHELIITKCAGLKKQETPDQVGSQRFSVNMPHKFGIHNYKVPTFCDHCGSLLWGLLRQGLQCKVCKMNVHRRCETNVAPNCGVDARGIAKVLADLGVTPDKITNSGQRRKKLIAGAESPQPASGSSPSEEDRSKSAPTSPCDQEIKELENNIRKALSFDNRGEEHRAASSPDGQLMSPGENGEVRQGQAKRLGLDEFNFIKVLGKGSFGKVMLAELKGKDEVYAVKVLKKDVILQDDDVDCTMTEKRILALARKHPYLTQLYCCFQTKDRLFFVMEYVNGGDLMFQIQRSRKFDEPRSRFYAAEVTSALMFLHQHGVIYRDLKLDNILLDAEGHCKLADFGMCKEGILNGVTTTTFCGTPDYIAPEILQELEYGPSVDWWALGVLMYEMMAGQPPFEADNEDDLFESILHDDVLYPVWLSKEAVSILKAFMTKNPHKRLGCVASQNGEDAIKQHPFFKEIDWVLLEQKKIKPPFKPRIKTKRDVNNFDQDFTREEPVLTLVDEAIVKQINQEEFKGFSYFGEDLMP

With `Cn1ncc(Cl)c1-c1cc(C(=O)N[C@H](CN)Cc2cccc(F)c2)sc1Cl` [GSK2110183], the inhibition at 0.5 µM was 4% on MAPKAP-K3(h); 26% on SRPK2(h); -12% against Lyn(h); 10% against DRAK1(h); 0% at FGFR2(h); 101% on PKG1β(h). Further, the inhibition at 0.5 µM at MKK4(m) is 25%; on BRK(h), 0%; on MAPK1(h) it was -26%; on NEK2(h), -10%. The inhibition at 10 µM at MAPKAP-K3(h) was 10%; against SRPK2(h) it was 37%; against Lyn(h), 7%; against DRAK1(h), 40%; on FGFR2(h), -2%; against PKG1β(h), 101%. Moreover, the inhibition at 10 µM against MKK4(m) is 57%; against BRK(h), -2%; against MAPK1(h), 10%; against NEK2(h) it was -8%. Further, the “% Inhibition” value in the assay with AMPK(r) (0.5 µM) is given as 3%; in the assay with AMPK(r) (10 µM) it was 56%. Further, the IC50 on PKCε is above 1000 nM.

In the case of `Cn1ncc(Cl)c1-c1cc(C(=O)N[C@H](CN)Cc2ccc(F)c(F)c2)oc1Cl` [GSK2141795], the inhibition at 0.5 µM on MAPKAP-K3(h) (0.5 µM, read-out: % Inhibition) is -8%; at SRPK2(h) (0.5 µM, read-out: % Inhibition), 1%; on Lyn(h) (0.5 µM, read-out: % Inhibition), -10%; at DRAK1(h) (0.5 µM, read-out: % Inhibition), -18%; at FGFR2(h) (0.5 µM, read-out: % Inhibition), -8%; at PKG1β(h) (0.5 µM, read-out: % Inhibition), 101%. Besides, the inhibition at 0.5 µM on MKK4(m) (0.5 µM, read-out: % Inhibition) was 8%; at BRK(h) (0.5 µM, read-out: % Inhibition), -15%; on MAPK1(h) (0.5 µM, read-out: % Inhibition), 4%; on NEK2(h) (0.5 µM, read-out: % Inhibition), -4%. Moreover, the inhibition at 10 µM at MAPKAP-K3(h) (10 µM, read-out: % Inhibition) is -2%; on SRPK2(h) (10 µM, read-out: % Inhibition), 27%; on Lyn(h) (10 µM, read-out: % Inhibition), 41%; on DRAK1(h) (10 µM, read-out: % Inhibition), 24%; on FGFR2(h) (10 µM, read-out: % Inhibition), 2%; at PKG1β(h) (10 µM, read-out: % Inhibition) it was 100%. The inhibition at 10 µM is 36% at MKK4(m) (10 µM, read-out: % Inhibition); 25% at BRK(h) (10 µM, read-out: % Inhibition); 58% at MAPK1(h) (10 µM, read-out: % Inhibition); 2% at NEK2(h) (10 µM, read-out: % Inhibition). Moreover, the “% Inhibition” value is reported as 10% in the assay on AMPK(r) (0.5 µM) and 76% in the assay with AMPK(r) (10 µM). Besides, the IC50 against PKCε was above 1000 nM.
